Here are results for 2 compounds from paper PMC5844890 (Scientific Reports, 2018).

Read-outs that look alike come from different tables or passages of the source.

One assay relates to CEM cells. In words: Anti-proliferative activity, CEM lymphoblastic leukemia cells (Coulter counting). Conditions: Homo sapiens, CCRF-CEM; mean ± SD of three independent experiments; 96 h; read-out: Tumor cells IC50 CEM. The format is cell-based. The source says:
(§1) The anti-proliferative activity of the synthesized benzofurane derivatives was studied in three human cancer cell lines [breast carcinoma (MDA-MB-231), lymphoblastic leukemia (CEM) and cervical carcinoma (HeLa) cells] and one endothelial cell line [human microvascular endothelial cells (HMEC-1)].
The human microvascular endothelial cell line HMEC-1 was obtained at passage 12 from the Centers for Disease Control and Prevention (Atlanta, GA, USA) and used from passage 17 till 27. Human breast carcinoma (MDA-MB-231), human cervical carcinoma (HeLa) and human T-lymphoid (CEM) cells were obtained from ATCC (Middlesex, UK). Cell lines were maintained in culture for up to 3 months and grown in DMEM, supplemented with 10% FBS, 0.01 M Hepes and 1 mM sodium pyruvate. All cells were cultured in a humidified 5% CO2 incubator at 37 °C.
(§2) HMEC-1 cells were seeded in 48-well plates at 20,000 cells/well. After 24 h, 5-fold dilutions of the compounds were added. The cells were allowed to proliferate 4 days in the presence of the compounds, trypsinized, and counted by means of a Coulter counter (Analis, Belgium). HeLa and MDA-MB-231 cells were seeded in 48-well plates at 10,000 cells/well. After 24 h, different concentrations of the compounds were added. After 3 days of incubation, the cells were trypsinized and counted in a Coulter counter. Suspension cells (human lymphoid Cem cells) were seeded in 96-well plates at 60,000 cells/well in the presence of different concentrations of the compounds, allowed to proliferate for 96 h, and counted in a Coulter counter. The 50% inhibitory concentration (IC50) was defined as the compound concentration required to reduce cell proliferation by 50%.

The subject of a further assay is A2780AD cells. Description: Anti-proliferative activity, A2780AD (MDR overexpressing P-glycoprotein) ovarian carcinoma cells. The class given is cell-based, human. The following applies: Homo sapiens, A2780AD; P-glycoprotein overexpressing resistant line; mean ± standard error of three independent experiments; read-out: A2780 AD IC50. The source says: One of the most relevant causes of tumor resistance to chemotherapy is the overexpression of membrane pumps which remove the chemotherapeutic agents from the treated cells.

For the next assay, the system named is MDA-MB-231 cells. Description: Cell cycle analysis (propidium iodide, flow cytometry). The following applies: 24 h treatment. The format is cell-based, human. The procedure:
Tubulin-binding agents interfere with mitotic spindle formation during cell division. […] Thus, we investigated whether 27 and 28 affect the progression of human breast cancer MDA-MB-231 cells through the cell cycle. […] In contrast, compounds 27 and 28 arrested the cell cycle in the M phase (mitosis) at concentrations as low as 0.03 and 0.1 μM (for compound 27 and 28 respectively).
Figure 6 Mechanism of action of the benzofurane derivatives. (A) Inhibition of cell cycle progression. MDA-MB-231 cells were treated with DMSO (control) or compounds 8, 27 or 28 for 24 h. Next, the cells were harvested, stained with propidium iodide (PI), and cell cycle distribution was evaluated by flow cytometry. Percentages of cells in the different phases of the cell cycle are indicated. (B) Caspase-3 activity. MDA-MB-231 cells were seeded in 48-well plates at 40,000 cells/cm². After 24 h, different concentrations of compounds 8, 27 or 28 and 2 µM of the caspase-3 substrate DEVD-NucView488 were added. After 16 h, the cells were incubated with 2 µg/ml Hoechst 33342 to stain the nucleus, and imaged. (C) Disruption of the vascular network. HMEC-1 cells were cultured on matrigel for 3 h to allow the formation of tube-like structures. Next, different concentrations of compounds were added. Upper panel: After 90 min, pictures were taken and the tubular network was scored (3: intact network, 0: network completely destroyed). Bars show average ± SEM (n = 4). Lower panel: Microscopic pictures of the tubular network 3 h after addition of compound.
MDA-MB-231 cells were seeded in 6-well plates at 125,000 cells/well in DMEM with 10% FBS. After 24 h, the cells were exposed to different concentrations of the compounds. After 24 h, the DNA of the cells was stained with propidium iodide using the CycleTEST PLUS DNA Reagent Kit (BD Biosciences, San Jose, CA). The DNA content of the stained cells was assessed by flow cytometry on a FACSCalibur flow cytometer and analyzed with CellQuest software (BD Biosciences) within 3 h after staining. Cell debris and clumps were excluded from the analysis by appropriate dot plot gating. Percentages of sub-G1, G1, S, and G2/M cells were estimated using appropriate region markers.
(A flow cytometer gives signals particle by particle.)

The test system of assay [1] is MDA-MB-231, CEM, HeLa and HMEC-1 cells. Description: Anti-proliferative activity, summary over tumor and endothelial cell lines. The class given is cell-based. The following applies: Homo sapiens. The procedure:
as §1, §2

Where [2] appears, read: Endothelial cell, range stated in the conclusions, read-out: IC50 (antiproliferative activity against tumor and endothelial cells).
The mark [3] stands for this setting: range over tumor and endothelial cell lines, read-out: IC50 values ranging (antiproliferative, all cell lines of Table 1).

As for `COCc1cc2cccc(NC(C)=C3C(=O)CC(c4ccccc4)CC3=O)c2o1` (stereo not drawn) [Compound 27, 2-(1-((2-(Methoxymethyl)benzofuran-7-yl)amino)ethylidene)-5-phenylcyclohexane-1,3-dione], the IC50 with CEM cells was 0.031 ± 0.002 µM; in the assay with A2780AD cells, 0.039 ± 0.015 µM; in assay [1] (setting [2]), 0.008 to 0.031 µM; in assay [1] (setting [3]), 0.009 to 0.051 µM. The “cells in the sub-G1 phase (indicative of apoptosis)” value with MDA-MB-231 cells is “caused an increase of cells in the sub-G1 phase”. In the assay with MDA-MB-231 cells, the “lowest concentration arresting the cell cycle in the M phase” value came out at 0.03 µM.
Take `CC(Nc1cccc2cc(COCCCO)oc12)=C1C(=O)CC(c2ccccc2)CC1=O` (stereo not drawn) [Compound 28, 2-(1-((2-((3-Hydroxypropoxy)methyl)benzofuran-7-yl)amino)ethylidene)-5-phenylcyclohexane-1,3-dione]: the IC50 in the assay on CEM cells was 0.051 ± 0.018 µM; in the assay on A2780AD cells it was 0.076 ± 0.015 µM; in assay [1] (setting [2]), 0.008 to 0.031 µM; in assay [1] (setting [3]) it was 0.009 to 0.051 µM. Besides, the “cells in the sub-G1 phase (indicative of apoptosis)” value in the assay with MDA-MB-231 cells is reported as “caused an increase of cells in the sub-G1 phase”. Also, the “lowest concentration arresting the cell cycle in the M phase” value in the assay on MDA-MB-231 cells was determined as 0.1 µM.

What is called IC50 is the concentration that gives 50% inhibition.
